Where “and” joins values, the source holds several entries; their conditions need not be identical. Equal values may be shown once. Where a name gives a salt, the structure may show the parent alone. Read-outs that look alike come from different tables or passages of the source.
What was measured:
[1] = In vitro PAR transport across harvested intestinal segments, EasyMount Ussing System: duodenum; type: in vitro ADME; settings: rat, 5 mg/ml (~25 mg) paromomycin in mucosal chamber, tissue area 0.5 sq cm
Protocol: (§1) HEPES buffer was used as the base mucosal and serosal fluid. […] First 5 ml of HEPES buffer was added to each of the two chambers (mucosal and serosal) and allowed to equilibrate for 20 min. […] Aliquots of sample solution were removed from the chamber on other side of the mounted intestinal segment periodically and replaced with an equal volume of fresh warm HEPES buffer.
(§2) These additives, either alone or in combinations, were dissolved in HEPES buffer on percent weight/weight basis of the HEPES medium. Owing to the expected variation in the in-vitro conditions and harvested rat intestinal segments, four replicates were used per experimental condition.
(§3) The apparent permeability coefficients (Papp) were calculated according to:
(§4) Papp=(dQ/dt)/C0×A, where dQ/dt is the linear appearance rate of mass in receiver compartment, C0 is the initial solute concentration in donor compartment, and A is the surface area.
(§5) The drug in post column eluant was derivatized with Dinitrofluorobenzene (DNFB) and monitored at 360 nm. The run time was 30 minutes.

[2] = In vitro PAR transport across harvested intestinal segments, EasyMount Ussing System: jejunum; type: in vitro ADME; settings: rat; for Papp at 15 mg/ml: 15 mg/ml PAR
Protocol: HEPES buffer was used as the base mucosal and serosal fluid. […] First 5 ml of HEPES buffer was added to each of the two chambers (mucosal and serosal) and allowed to equilibrate for 20 min. […] Aliquots of sample solution were removed from the chamber on other side of the mounted intestinal segment periodically and replaced with an equal volume of fresh warm HEPES buffer. […] These additives, either alone or in combinations, were dissolved in HEPES buffer on percent weight/weight basis of the HEPES medium. Owing to the expected variation in the in-vitro conditions and harvested rat intestinal segments, four replicates were used per experimental condition. The apparent permeability coefficients (Papp) were calculated according to: Papp=(dQ/dt)/C0×A, where dQ/dt is the linear appearance rate of mass in receiver compartment, C0 is the initial solute concentration in donor compartment, and A is the surface area. […] The drug in post column eluant was derivatized with Dinitrofluorobenzene (DNFB) and monitored at 360 nm. The run time was 30 minutes.

[3] = In vitro PAR transport across harvested intestinal segments, EasyMount Ussing System: ileum; type: in vitro ADME; settings: rat, 5 mg/ml (~25 mg) paromomycin in mucosal chamber, tissue area 0.5 sq cm
Protocol: as §1, §2, §3, §4, §5

[4] = In vitro PAR transport across harvested intestinal segments, EasyMount Ussing System: colon; type: in vitro ADME; settings: rat, 5 mg/ml (~25 mg) paromomycin in mucosal chamber, tissue area 0.5 sq cm
Protocol: as §1, §2, §3, §4, §5

[5] = Paromomycin in vivo absorption (pharmacokinetic) studies in rats; parameters: species or system Male rats (Sprague Dawley)
Protocol: Paromomycin was extracted from plasma samples (100 μl volume) with phenylboronic acid solid phase extraction columns, and the bound drug was eluted from the columns with 1% (v/v) formic acid in water. The acid eluates were evaporated under vacuum, and then the dry residues were reconstituted in 100 μl of 1 mM heptafluorobutyric acid (HFBA) in water.

[6] = historically considered (ref. 6); cited from earlier work
[7] = male rats, i.v. 100 mg/kg, Group #1, individual rats, 100 mg/kg
[8] = male, Sprague Dawley, rat, plasma, iv, 100 mg/kg, i.v. 100 mg/kg, Group #1, Mean of 3 rats

- Papp at […], 5 mg/ml [1]: 1.94 ×10⁻⁶ cm/s
- Papp at 15 mg/ml ([2]; jejunum M-to-S, Sodium Decanoate in mucosal 0.2 mg/ml (equilibrated 20 min before drug)): 1.48 ×10⁻⁶ cm/s
- Papp at 15 mg/ml ([2]; jejunum M-to-S, Sodium Decanoate in mucosal 0.5 mg/ml (equilibrated)): 2.22 ×10⁻⁶ cm/s
- Papp at 15 mg/ml ([2]; jejunum M-to-S, Sodium Decanoate in mucosal 1 mg/ml (equilibrated)): 4.4 ×10⁻⁶ cm/s
- Papp at 15 mg/ml ([2]; jejunum M-to-S, Sodium Decanoate in mucosal 1 mg/ml (not equilibrated)): 3.83 ×10⁻⁶ cm/s
- Papp at 15 mg/ml ([2]; jejunum M-to-S, Sodium Decanoate in serosal 0.2 mg/ml (not equilibrated)): 3.86 ×10⁻⁶ cm/s
- Papp at 15 mg/ml ([2]; jejunum M-to-S, Sodium Decanoate in serosal 0.5 mg/ml (not equilibrated)): 3.54 ×10⁻⁶ cm/s
- Papp at 15 mg/ml ([2]; jejunum M-to-S, Sodium Decanoate in serosal 1.0 mg/ml (not equilibrated)): 7.2 ×10⁻⁶ cm/s
- Papp at 15 mg/ml ([2]; jejunum M-to-S, no Quinidine, no Sodium Decanoate, tissue area 0.5 sq cm): 2.63 ×10⁻⁶ cm/s
- Papp at 15 mg/ml ([2]; jejunum S-to-M, no Quinidine): 2.75 ×10⁻⁶ cm/s
- Papp at […], 5 mg/ml ([2]; jejunum, 5 mg/ml (~25 mg) paromomycin in mucosal chamber, tissue area 0.5 sq cm): 3.93 ×10⁻⁶ cm/s
- Papp at 15 mg/ml ([2]; with quinidine 0.05 mg/ml in mucosal chamber, jejunum M-to-S, 0.05 mg/ml Quinidine in mucosal): 4.37 ×10⁻⁶ cm/s
- Papp at 15 mg/ml ([2]; with quinidine 0.05 mg/ml in mucosal chamber, jejunum S-to-M, 0.05 mg/ml Quinidine in mucosal): 1.85 ×10⁻⁶ cm/s
- Papp at […], 5 mg/ml [3]: 2.22 ×10⁻⁶ cm/s
- Papp at […], 5 mg/ml [4]: 2.07 ×10⁻⁶ cm/s
- t1/2 ([5]; male rats, i.v. 100 mg/kg in sterile saline, Group #1, individual rats, 100 mg/kg): 2.70 h and 2.86 h
- V ([5]; male rats, i.v. 100 mg/kg, Group #1, Mean of 3 rats): 5.40 L/kg
- AUC [5, 7]: 55465 ng·h/mL and 85847 ng·h/mL
- Cl [5, 7]: 30 mL/min/kg and 19.3 mL/min/kg
- Cmax [5, 7]: 95.651 µg/mL and 101.318 µg/mL
- V [5, 7]: 4.39 L/kg and 7.01 L/kg and 4.80 L/kg
- half-life ([5]; male, Sprague Dawley, rat, plasma, iv, 100 mg/kg, i.v. 100 mg/kg in sterile saline, Group #1, individual rats): 2.85 h
- clearance [5, 8]: 22.3 mL/min/kg
- half-life [5, 8]: 2.8 h
- AUC ([5]; male, Sprague Dawley, rat, plasma, iv, 100 mg/kg, i.v. 100 mg/kg, Group #1, Mean of 3 rats, read-out: AUC): 78300 ng·h/mL
- Cmax ([5]; male, Sprague Dawley, rat, plasma, iv, 100 mg/kg, i.v. 100 mg/kg, Group #1, Mean of 3 rats, read-out: Cmax): 124 µg/mL
- clearance ([5]; male, Sprague Dawley, rat, plasma, iv, 100 mg/kg, i.v. 100 mg/kg, Group #1, individual rats): 17.8 mL/min/kg
- AUC ([5]; male, Sprague Dawley, rat, plasma, iv, 100 mg/kg, i.v. 100 mg/kg, Group #1, individual rats, read-out: AUC): 93500 ng·h/mL
- Cmax ([5]; male, Sprague Dawley, rat, plasma, iv, 100 mg/kg, i.v. 100 mg/kg, Group #1, individual rats, read-out: Cmax): 174 µg/mL
Compound: NC[C@@H]1O[C@H](O[C@H]2[C@@H](O)[C@H](O[C@@H]3[C@@H](O)[C@H](N)C[C@H](N)[C@H]3O[C@H]3O[C@H](CO)[C@@H](O)[C@H](O)[C@H]3N)O[C@@H]2CO)[C@H](N)[C@@H](O)[C@@H]1O [PAR, Paromomycin sulfate]
- oral bioavailability [6]: close to zero

Source: US20080207745A1, “Orally-absorbed formulation for paromomycin” (priority 2007, published 2008)
